Experimental data from ChEMBL document CHEMBL1781907, “Expeditious synthesis and biological evaluation of novel 2,N6-disubstituted 1,2-dihydro-1,3,5-triazine-4,6-diamines as potential antimalarials” (Eur J Med Chem, 2011).

Legend:
[1] = system: Plasmodium falciparum; assay: Antimalarial activity against chloroquine and cycloguanil-resistant Plasmodium falciparum FCR-3/Gambia ring stage infected in human red blood cells assessed as inhibition of [3H]-hypoxanthine incorporation incubated 24 hrs before addition of [3H]-hypoxanthine measured after 24 hrs; type: functional, cell-based
[2] = Toxicity at human RBC assessed as haemolysis at 50 uM; type: cell-based; settings: erythrocyte
[3] = system: Plasmodium falciparum; assay: Ratio of cycloguanil IC50 to compound IC50 for chloroquine and cycloguanil-resistant Plasmodium falciparum FCR-3/Gambia; type: functional

SMILES	IC50 [1] [µM]	Activity [2]	Ratio IC50 [3]
CC1(C)N=C(N)N=C(N)N1c1ccc(Cl)cc1 [CYCLOGUANIL]	5		
Cl.NC1=NC2(CCCCC2)NC(NCCCOc2ccc(Cl)cc2)=N1	7.94	Non-toxic	
Cl.NC1=NC(c2ccc(F)cc2)NC(NCCCOc2ccc(Cl)cc2)=N1 (stereo unspecified)	6.21	Non-toxic	
COc1ccc(OCCCNC2=NC(N)=NC(c3ccccc3)N2)cc1.Cl (stereo unspecified)	12.3	Non-toxic	
Cl.NC1=NC(c2ccco2)NC(NCCCOc2ccc(Cl)cc2)=N1 (stereo unspecified)	0.99	Non-toxic	5
Cl.NC1=NC(c2ccc(C(F)(F)F)cc2)NC(NCCCOc2ccc(Cl)cc2)=N1 (stereo unspecified)	5.54	Non-toxic	
Cl.NC1=NC2(CCCCC2)NC(NCc2ccccc2)=N1	9.89	Non-toxic	
COc1ccc(C2N=C(N)N=C(NCCCOc3ccc(Cl)cc3)N2)cc1.Cl (stereo unspecified)	6.66	Non-toxic	
Cl.NC1=NC(c2ccccc2)NC(NCCCCOc2ccc(Cl)cc2)=N1 (stereo unspecified)	2.71	Non-toxic	5
Cl.NC1=NC(c2ccccc2)NC(NCCCOc2ccc(Cl)c(Cl)c2)=N1 (stereo unspecified)	6.73	Non-toxic	
Cl.NC1=NC(c2ccccc2)NC(NCCCOc2ccccc2F)=N1 (stereo unspecified)	10.8	Non-toxic	
Cl.NC1=NC(c2ccc([N+](=O)[O-])cc2)NC(NCCCOc2ccc(Cl)cc2)=N1 (stereo unspecified)	7.39	Non-toxic	
Cl.NC1=NC(C2CCCCC2)NC(NCCCOc2ccc(Cl)cc2)=N1 (stereo unspecified)	4.59	Non-toxic	
Cl.NC1=NC(c2ccc(F)cc2)NC(NCCc2ccc(Cl)c(Cl)c2)=N1 (stereo unspecified)	8.41	Non-toxic	
CC1(C)N=C(N)N=C(NCCc2ccc(Cl)cc2)N1.Cl	16.6	Non-toxic	
CC1(C)N=C(N)N=C(NCCCCOc2ccc(Cl)cc2)N1.Cl	7.2	Non-toxic	
CN(C)c1ccc(C2N=C(N)N=C(NCCCOc3ccc(Cl)cc3)N2)cc1.Cl (stereo unspecified)	44.8	Non-toxic	
Cl.NC1=NC(c2ccc([N+](=O)[O-])cc2)NC(NCCc2ccc(Cl)c(Cl)c2)=N1 (stereo unspecified)	11.1	Non-toxic	
Cl.NC1=NC(c2ccccc2)NC(NCCCOc2ccccc2Cl)=N1 (stereo unspecified)	4.53	Non-toxic	
CC1(C)N=C(N)N=C(NCCCOc2ccc(Cl)cc2)N1.Cl	11.3	Non-toxic	
Cl.NC1=NC(c2ccccc2)NC(NCCCOc2ccc([N+](=O)[O-])cc2)=N1 (stereo unspecified)	3.87	Non-toxic	
Cl.NC1=NC(c2ccccc2)NC(NCCCOc2c(Cl)cc(Cl)cc2Cl)=N1 (stereo unspecified)	4.32	Non-toxic	
Cl.NC1=NC(c2ccccc2)NC(NCCCOc2ccc(Cl)cc2)=N1 (stereo unspecified)	7.11	Non-toxic	
Cl.NC1=NC(c2ccccc2Cl)NC(NCCCOc2ccc(Cl)cc2)=N1 (stereo unspecified)	6.66	Non-toxic	
Cl.NC1=NC(c2ccccc2)NC(NCCCOc2ccc(Cl)cc2Cl)=N1 (stereo unspecified)	4.52	Non-toxic	
CC1(C)N=C(N)N=C(NCc2ccccc2)N1.Cl	49.8	Non-toxic	
Cl.NC1=NC(c2ccccc2)NC(NCCCCCOc2ccc(Cl)cc2)=N1 (stereo unspecified)	1.36	Non-toxic	5
CC1(C)N=C(N)N=C(NCCCSc2ccc(Cl)cc2)N1.Cl	7.84	Non-toxic	
Cl.NC1=NC(c2ccccc2)NC(NCCCSc2ccc(Cl)cc2)=N1 (stereo unspecified)	1.3	Non-toxic	5
